The EC50 is the concentration at which the effect is half-maximal. For orientation: kinetic solubility means the concentration staying in solution when a stock, usually in DMSO, is diluted into the medium.

≈ marks a conversion by molar mass, not a printed value.

The test system of the first data set is MM cell lines. As to the kind of experiment: Cell viability, ATPlite 1-step, MM cell lines. As to conditions: cell line printed N/A; read-out: Compound EC50. Type of data set: cell-based. The method, then:
(§1) Cell Viability. The assay was performed only when cell viability was ≥90%. Cells were seeded in 96-well white clear bottom plates at concentration of 100,000 cells/mL and treated with serially diluted compounds or vehicle (DMSO) control in triplicates for 48 hours (h). Cell viability was determined using the ATPlite 1-step assay system (PerkinElmer). The method was based on the production of light caused by the reaction of ATP, which was a marker for cell viability. […] were added to the plates which were read in a plate reader for luminescence. The emitted light is proportional to the ATP concentration. Viability was calculated as the percent of viable cells from control vehicle-treated cells. EC50 was calculated using Prism software.
(§2) Potency of compounds were assessed by viability assay.
A general note: Cellular ATP, detected with luciferase, serves as a proxy for viable cell number.
Regarding `CC(=O)N(C)CCC(=O)N1C/C(=C\c2ccc(Cl)c(Cl)c2)C(=O)/C(=C/c2ccc(Cl)c(Cl)c2)C1` [Compound B29], the EC50 was not below 1000 nM.

The test system of a further data set is MM1.S. As to the kind of experiment: Cell viability, ATPlite 1-step, MM cell lines. Conditions: Homo sapiens; MM1.S MM cell line; 48 hours; read-out: Compound EC50. Type of data set: cell-based. As for the experimental part:
as §1, §2
Consider `CC(=O)NCC(=O)N1C/C(=C\c2ccc(C#N)cc2)C(=O)/C(=C/c2ccc(C#N)cc2)C1` [Compound B6, N-{2-[(3E,5E)-3,5-bis[(4-cyanophenyl)methylidene]-4-oxopiperidin-1-yl]-2-oxoethyl}acetamide], for which the concentration giving a half-maximal response (EC50) was less than 300 nM.

`CN(CCCN=[N+]=[N-])CC(=O)NCC(=O)N1C/C(=C\c2ccc(C#N)cc2)C(=O)/C(=C/c2ccc(C#N)cc2)C1` [Compound B2]: the EC50 was less than 300 nM.

Turning to `O=C1/C(=C/c2ccc(Cl)c(Cl)c2)CN(C(=O)C2(Nc3ccccc3)CC2)CC1Cc1ccc(Cl)c(Cl)c1` (centres unmarked) [Compound B26], the EC50 is not below 1000 nM.

For `N#Cc1ccc(/C=C2\CN(C(=O)CNC(=O)CO)C/C(=C\c3ccc(C#N)cc3)C2=O)cc1` [Compound B8], the EC50 is less than 300 nM.

Consider `O=C1/C(=C/c2ccc(Cl)c(Cl)c2)CN(C(=O)C2(Nc3ccccc3)CC2)C/C1=C\c1ccc(Cl)c(Cl)c1` [Compound B16], for which the EC50 was less than 300 nM.

In the case of `Cc1noc(C)c1/C=C1\CN(S(=O)(=O)CCCN(C)C)C/C(=C\c2c(C)noc2C)C1=O` [Compound E1], the EC50 is less than 300 nM.

Take `CN(C)CCCS(=O)(=O)N1C/C(=C\c2ccc(C#N)cc2)C(=O)C(Cc2ccc(C#N)cc2)C1` (centres unmarked) [Compound F1]: the EC50 is less than 300 nM.

As to `CC(=O)NCCC(=O)N1C/C(=C\c2ccc(Cl)c(Cl)c2)C(=O)/C(=C/c2ccc(Cl)c(Cl)c2)C1` [Compound B13], the EC50 is less than 300 nM.

Consider `CC(=O)NC1(C(=O)N2C/C(=C\c3ccc(Cl)c(Cl)c3)C(=O)/C(=C/c3ccc(Cl)c(Cl)c3)C2)CC1` [Compound B23], for which the EC50 was less than 300 nM.

In the case of `C#CCN(C)CC(=O)NCC(=O)N1C/C(=C\c2ccc(C#N)cc2)C(=O)/C(=C/c2ccc(C#N)cc2)C1` [Compound B3], the concentration giving a half-maximal response (EC50) was less than 300 nM.

As for `CN(C)CCS(=O)(=O)N1C/C(=C\c2ccc(C#N)cc2)C(=O)/C(=C/c2ccc(C#N)cc2)C1` [Compound BA], the EC50 was less than 300 nM.

With `CN(C)CCCS(=O)(=O)N1C/C(=C\c2ccc(F)c(C(F)(F)F)c2)C(=O)/C(=C/c2ccc(F)c(C(F)(F)F)c2)C1` [Compound CA], the EC50 was less than 300 nM.

For the next data set, the system named is U266. As to the kind of experiment: Cell viability, ATPlite 1-step, MM cell lines. As to conditions: Homo sapiens, U-266; U266 MM cell line; 48 hours; read-out: Compound EC50. Type of data set: cell-based. As for the experimental part:
as §1, §2
As to `COCCNCC(=O)N1C/C(=C\c2ccc(Cl)c(Cl)c2)C(=O)/C(=C/c2ccc(Cl)c(Cl)c2)C1` [Compound B11], the EC50 is not below 1000 nM.

On to `COC(Cc1ccccc1)C(=O)N1C/C(=C\c2ccc(Cl)c(Cl)c2)C(=O)/C(=C/c2ccc(Cl)c(Cl)c2)C1` (centres unmarked) [Compound B17], for which the EC50 is less than 300 nM.

Take `COCCS(=O)(=O)N1C/C(=C\c2ccc(Cl)c(Cl)c2)C(=O)/C(=C/c2ccc(Cl)c(Cl)c2)C1` [Compound D1]: the 50% effective concentration (EC50) was less than 300 nM.

Turning to `O=C1/C(=C/c2ccc(Cl)c(Cl)c2)CN(C(=O)C(Cc2ccccc2)C(=O)O)C/C1=C\c1ccc(Cl)c(Cl)c1` (centres unmarked) [Compound B15], the EC50 is not below 1000 nM.

Turning to `CC(C)C(Nc1ccccc1)C(=O)N1C/C(=C\c2ccc(Cl)c(Cl)c2)C(=O)/C(=C/c2ccc(Cl)c(Cl)c2)C1` (centres unmarked) [Compound B28], the EC50 was less than 300 nM.

With `N[C@@H](Cc1ccccc1)C(=O)N1C/C(=C\c2ccc(Cl)c(Cl)c2)C(=O)/C(=C/c2cc(Cl)ccc2Cl)C1` [Compound B22], the EC50 was less than 300 nM.

Consider `N[C@@H](Cc1ccccn1)C(=O)N1C/C(=C\c2ccc(Cl)c(Cl)c2)C(=O)/C(=C/c2ccc(Cl)c(Cl)c2)C1` [Compound B18], for which the EC50 is less than 300 nM.

Consider `N[C@@H](Cc1cccc(O)c1)C(=O)N1C/C(=C\c2ccc(Cl)c(Cl)c2)C(=O)/C(=C/c2ccc(Cl)c(Cl)c2)C1` [Compound B19], for which the EC50 was less than 300 nM.

For the compound `O=C1/C(=C/c2ccc(Cl)c(Cl)c2)CN(C(=O)CCc2ccccc2)C/C1=C\c1ccc(Cl)c(Cl)c1` [Compound B12], the EC50 lay within 300 to 1000 nM.

Turning to `CC(=O)NCCC(=O)N1C/C(=C\c2ccc(Cl)c(Cl)c2)C(=O)C(Cc2ccc(Cl)c(Cl)c2)C1` (centres unmarked) [Compound B27], the EC50 was not below 1000 nM.

For `CNC(=O)CCC(=O)N1C/C(=C\c2ccc(Cl)c(Cl)c2)C(=O)/C(=C/c2ccc(Cl)c(Cl)c2)C1` [Compound B24], the EC50 was in the range of 300 to 1000 nM.

Turning to `CC(=O)NCC(=O)N1C/C(=C\c2ccc(Cl)c(Cl)c2)C(=O)/C(=C/c2ccc(Cl)c(Cl)c2)C1` [Compound B25], the 50% effective concentration (EC50) is less than 300 nM.

For `N[C@@H](Cc1ccccc1)C(=O)N1C/C(=C\c2ccccc2)C(=O)/C(=C/c2ccc(Cl)c(Cl)c2)C1` [Compound B21], the EC50 lay within 300 to 1000 nM.

On to `CC(=O)N[C@H](CO)C(=O)N1C/C(=C\c2ccc(C#N)cc2)C(=O)/C(=C/c2ccc(C#N)cc2)C1` [Compound B7, N-[(2R)-1-[(3E,5E)-3,5-bis[(4-cyanophenyl)methylidene]-4-oxopiperidin-1-yl]-3-hydroxy-1-oxopropan-2-yl]acetamide], for which the EC50 was in the range of 300 to 1000 nM.

Consider `CNC(=O)CC(=O)N1C/C(=C\c2ccc(Cl)c(Cl)c2)C(=O)/C(=C/c2ccc(Cl)c(Cl)c2)C1` [Compound B30], for which the EC50 was less than 300 nM.

As to `O=C1/C(=C/c2ccc(Cl)c(Cl)c2)CN(C(=O)C2COCCN2)C/C1=C\c1ccc(Cl)c(Cl)c1` (centres unmarked) [Compound B20], the EC50 is less than 300 nM.

Turning to `CNCC(=O)N1C/C(=C\c2ccc(Cl)c(Cl)c2)C(=O)/C(=C/c2ccc(Cl)c(Cl)c2)C1` [Compound B10], the EC50 was not below 1000 nM.

`CN(C)C(Cc1ccccc1)C(=O)N1C/C(=C\c2ccc(Cl)c(Cl)c2)C(=O)/C(=C/c2ccc(Cl)c(Cl)c2)C1` (centres unmarked) [Compound B32]: the concentration for a half-maximal effect (EC50) is less than 300 nM.

For `C#CCN(C)CC(=O)NCC(=O)N1C/C(=C\c2ccc(C#N)cc2)C(=O)/C(=C/c2ccc(C#N)cc2)C1` [Compound B3], the EC50 is less than 300 nM.

With `O=C1/C(=C/c2ccc(Cl)c(Cl)c2)CN(C(=O)C(O)Cc2ccccc2)C/C1=C\c1ccc(Cl)c(Cl)c1` (centres unmarked) [Compound B14], the EC50 fell in the range of 300 to 1000 nM.

Turning to `O=C1/C(=C/c2ccc(Cl)c(Cl)c2)CN(C(=O)CNc2ccccc2)C/C1=C\c1ccc(Cl)c(Cl)c1` [Compound B9], the EC50 was not below 1000 nM.

`CC(=O)NCC(=O)N1C/C(=C\c2ccc(F)c(C#N)c2)C(=O)/C(=C/c2ccc(F)c(C#N)c2)C1` [Compound B5, N-{2-[(3E,5E)-3,5-bis[(3-cyano-4-fluorophenyl)methylidene]-4-oxopiperidin-1-yl]-2-oxoethyl}acetamide]: the 50% effective concentration (EC50) is less than 300 nM.

In a further data set the test system is poly-ubiquitinated proteins. The experiment in a line: Western blot of poly-ubiquitinated proteins in MM1.S cells. Type of data set: cell-based. As to conditions: SDS-PAGE immunoblot. As for the experimental part: MM1.S cells were treated with Compound B1 (FIG. 1A), Compound AA (FIG. 1B) and Compound E1 (FIG. 1C) for indicated periods of time. Following treatment, the cells were harvested, and the lysates resolved on SDS-PAGE. Transferred membranes were blotted with antibodies as indicated. Actin was used as loading control.
Protein analysis by Western blot. At the end of treatment period, the cells were lysed with M-PER mammalian protein extraction reagent (ThermoFisher Scientific) supplemented with protease inhibitors. Equal protein amounts were resolved on pre-cast SDS-PAGE (ThermoFisher Scientific) and transferred to a PVDF membrane. The membrane was immunoblotted with antibodies as indicated. The following antibodies were used: Ub MAb (SC-8017, Santa-Cruz), ATF4, ATF6, phospho JNK, JNK (Cell signaling); eIF2alpha, phospho eIF2alpha (Novus).
(In general: A western blot detects proteins with antibodies after separation by electrophoresis.)
On to `Cc1noc(C)c1/C=C1\CN(S(=O)(=O)CCCN(C)C)C/C(=C\c2c(C)noc2C)C1=O` [Compound E1], for which the “accumulation of poly-ubiquitinated proteins” value is given as “observable accumulation of poly-ubiquitinated proteins”.

In a further data set the test system is proteasome. As to the kind of experiment: Proteasome activity (Proteasome-GLO) in intact MM1.S cells. Type of data set: cell-based. Conditions: 3 hr at 37° C. As for the experimental part: Proteasome activity was measured in intact MM1.S cells as cleavage of peptide substrates, specific for Trypsin like (TL), Chemotrypsin like (CTL) and Caspase like (PL) activities of the proteasome following treatment with Compound B1, Compound AA or Bortezomib (BTZ) at ˜EC50 concentrations for 3 hr at 37° C. BTZ was used as positive control.
Proteasome activity. The assay was performed only when cell viability is ≥90%. Cells were seeded in 96-well white clear bottom plates and treated with diluted compounds or vehicle control in triplicates for 3 hours at various concentrations. Catalytic activity was measured using three luminogenic proteasome substrates: Suc-LLVY-aminoluciferin (Succinyl-leucine-leucine-valine-tyrosine-aminoluciferin), Z-LRR-aminoluciferin (Z-leucine-arginine-arginine-aminoluciferin) and Z-nLPnLD-aminoluciferin (Z-norleucine-proline-norleucine-aspartate-aminoluciferin) for the chymotrypsin-like, trypsin-like and caspase-like activities, respectively (Proteasome-GLO, Promega). The emitted light was proportional to the proteasomal activity. Catalytic activity was calculated as the percent activity from control vehicle-treated cells.
MM1.S cells, were treated with Compound B1, Compound AA or Bortezomib (BTZ) at various concentrations for 3 hr at 37° C. […] Proteasome activity was measured by cleavage of proteasome-specific peptide substrates for TL, CTL and PL activities.
For `CC(C)C[C@H](NC(=O)[C@H](Cc1ccccc1)NC(=O)c1cnccn1)B(O)O` [Bortezomib, reference compound], the “inhibition of the enzymatic functions of the proteasome (TL, CTL and PL activities)” value is listed as “specifically inhibits CTL activity”.

Tested on in a further data set: not listed separately
The experiment in a line: Kinetic solubility by differential UV absorbance. Type of data set: physicochemical. As to conditions: aqueous buffer, kinetic from dmso stock; DMSO stock diluted in PBS, OD before and after centrifugation. As for the experimental part: FIG. 3A-3B depict the kinetic solubility of Compound B1 (FIG. 3A) and Compound E1 (FIG. 3B) as measured by differential UV absorbance of the compounds, as performed before and after centrifugation. Soluble concentrations were determined when OD was equivalent between centrifuged and non-centrifuged fractions. Compounds were dissolved from co-solvent stock, and further serially 2-fold diluted in PBS. OD was measured at the maximal absorbance for each compound before (BC) and after (AC) centrifugation, using Spark 20M, Tecan.
Kinetic solubility quantification. Compound B1/Compound E1 DMSO stock was diluted with PBS by serial 2-fold dilutions. Then, the samples were centrifuged for 5 minutes at 17,000 g to precipitate any insoluble compound. Each sample was tested at a single wave length (Compound B1 at […]; Compound E1 at […]) in duplicate before and after centrifugation to assess solubility of the compound. Soluble concentrations were determined when optical density (OD) was equivalent between centrifuged and non-centrifuged fractions.
Kinetic solubility of all Compounds was determined by differential UV absorbance before and after centrifugation. […] Solubility concentration was determined when OD was equivalent between centrifuged and non-centrifuged fractions (FIG. 3A-3B).
For the compound `Cc1noc(C)c1/C=C1\CN(S(=O)(=O)CCCN(C)C)C/C(=C\c2c(C)noc2C)C1=O` [Compound E1], the kinetic solubility is 2500 µM (≈ 1160 µg/mL).

The values above are taken from patent publication US20200399262A1, “COMPOUNDS FOR INHIBITING PROTEIN DEGRADATION AND METHODS OF USE THEREOF IN THE TREATMENT OF CANCER” (PI Therapeutics Ltd, priority 2018, published 2020).
